# Reference: US5362856A, “Monooxygenase-like activity of heme proteins” (University of Toronto Innovations Foundation, priority 1993, dated 1994)
# B1: myoglobin (protein, UniProt P68082 2-154, looked up)
# Myoglobin: GLSDGEWQQVLNVWGKVEADIAGHGQEVLIRLFTGHPETLEKFDKFKHLKTEAEMKASEDLKKHGTVVLTALGGILKKKGHHEAELKPLAQSHATKHKIPIKYLEFISDAIIHVLHSKHPGDFGADAQGAMTKALELFRNDIAAKYKELGFQG
# notes: myoglobin Mb, MW18800, from Sigma, used in place of Mt
# B2: catalase: enzyme added to test whether peroxide is involved in the hydroxylation (protein, UniProt P00432 2-527, looked up)
# Catalase: ADNRDPASDQMKHWKEQRAAQKPDVLTTGGGNPVGDKLNSLTVGPRGPLLVQDVVFTDEMAHFDRERIPERVVHAKGAGAFGYFEVTHDITRYSKAKVFEHIGKRTPIAVRFSTVAGESGSADTVRDPRGFAVKFYTEDGNWDLVGNNTPIFFIRDALLFPSFIHSQKRNPQTHLKDPDMVWDFWSLRPESLHQVSFLFSDRGIPDGHRHMNGYGSHTFKLVNANGEAVYCKFHYKTDQGIKNLSVEDAARLAHEDPDYGLRDLFNAIATGNYPSWTLYIQVMTFSEAEIFPFNPFDLTKVWPHGDYPLIPVGKLVLNRNPVNYFAEVEQLAFDPSNMPPGIEPSPDKMLQGRLFAYPDTHRHRLGPNYLQIPVNCPYRARVANYQRDGPMCMMDNQGGAPNYYPNSFSAPEHQPSALEHRTHFSGDVQRFNSANDDNVTQVRTFYLKVLNEEQRKRLCENIAGHLKDAQLFIQKKAVKNFSDVHPEYGSRIQALLDKYNEEKPKNAVHTYVQHGSHLSAREKANL
# Key:
# [1] = 1 uM methemoglobin, 2.0 Mm anisole, 0.6 mM sodium sulfite, pH 7.0, 37 degrees C
# Method: The cleavage of anisole is a more demanding test of monooxygenase activity--see Galaris et. al., Arch. Biochem. Biophys., 1990, 281, 163 n., and Lindsay Smith et.al., J. Chem. Soc. Chem. Commun., 1982, 55. […] The reaction mixtures were preincubated for 5 mins at 37 degrees C. and then terminated by addition of ice-cold 20% trichloroacetic acid (for formaldehyde determination), or by addition of ice-cold diethyl ether and subsequent extraction with diethyl ether (for GC detection of the product phenol).
# hemoglobin-Fe(II) = experiment: Effect of added agents on the sulfite/heme protein catalysed hydroxylation; assay type: biochemical; conditions: agents in reasonable quantities
# [2] = Aniline p-hydroxylation catalysed by myoglobin with sodium sulfite; assay type: biochemical; conditions: 0.1 mL of 6 mM sodium sulphite, otherwise as Example 1
# Method: An experiment was conducted exactly as described above in connection with Example 1, but using myoglobin Mb, 28 mg, MW18800, from Sigma, in place of Mt, and an amount of 0.1 mL of 6 mM sodium sulphite. Otherwise conditions and quantities were the same.
molecule,measurement,setting,value
methemoglobin,production of phenol and formaldehyde from anisole,[1],140 pmol/min
same,kinetics of hydroxylation with respect to aniline,"constant sodium sulfite concentration, 37 degrees C, pH 7.0",follows Michaelis-Menten kinetics
same,kinetic mechanism on variation of sodium sulfite concentration,"sodium sulfite 0.05-0.40 mM, Lineweaver-Burk plots (FIG. 2)",ping-pong mechanism
C[S+](C)[O-] [dimethylsulfoxide],effect on the catalytic hydroxylation process,hemoglobin-Fe(II),not subject to inhibition
[C-]#[O+] [carbon monoxide],effect on the catalytic hydroxylation process,hemoglobin-Fe(II),inhibited
OC[C@@H](O)[C@@H](O)[C@H](O)[C@H](O)CO [mannitol],effect on the catalytic hydroxylation process,hemoglobin-Fe(II),not subject to inhibition
CCO [ethanol],effect on the catalytic hydroxylation process,hemoglobin-Fe(II),not subject to inhibition
superoxide dismutase: enzyme added to test whether superoxide is involved in the hydroxylation,effect on the catalytic hydroxylation process,hemoglobin-Fe(II),no effect
B1,monooxygenase activity (aniline to p-aminophenol) compared with Mt of Example 1,[2],essentially similar result
B2,effect on the catalytic hydroxylation process,hemoglobin-Fe(II),no effect
